According to patent US20100298314A1, “NOVEL JNK INHIBITORS” (Schering Corporation, priority 2006, published 2010):
Values joined by “and” are separate entries in the source; they are usually repeats but may differ in a detail not shown here. Equal values may be shown once. Read-outs that look alike come from different tables or passages of the source.

Assays:
Type in all cases: biochemical
[1] = target: JNK1 (Homo sapiens, UniProt P45983); experiment: JNK1 kinase DELFIA (phosphorylation of biotinylated GST-ATF2)
Sequence of JNK1 (P45983 whole entry, species assumed): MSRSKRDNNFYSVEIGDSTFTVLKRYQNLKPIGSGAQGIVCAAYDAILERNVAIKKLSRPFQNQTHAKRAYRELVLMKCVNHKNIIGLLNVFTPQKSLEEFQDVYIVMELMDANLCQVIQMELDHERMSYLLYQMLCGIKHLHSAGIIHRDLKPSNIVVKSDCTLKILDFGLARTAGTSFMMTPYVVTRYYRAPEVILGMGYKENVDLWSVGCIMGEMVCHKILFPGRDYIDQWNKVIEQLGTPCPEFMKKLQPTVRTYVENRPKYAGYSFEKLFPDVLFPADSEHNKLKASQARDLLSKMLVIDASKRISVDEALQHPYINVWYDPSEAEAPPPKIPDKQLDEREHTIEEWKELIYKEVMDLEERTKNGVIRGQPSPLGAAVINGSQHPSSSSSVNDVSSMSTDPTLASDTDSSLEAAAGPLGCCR
Protocol: (§1) Before initiation of kinase reactions, compounds were pre-incubated with the enzyme for 10 minutes. Pre-incubation reactions contained 50 mM HEPES pH 7.3, 10 mM MgCl2, 1 mM DTT, 75 mM NaCl, 1 mM EDTA, 1 mM EGTA, 0.01% CHAPS, 2 nM JNK1, 6 ug/mL biotinylated GST-ATF2, 0.1 mg/ml BSA, 5% DMSO and 0-100 μM compound in a total volume of 40 μL. After a 10 minute room temperature pre-incubation, 10 μL of 35 μM ATP was added to start the reaction (final concentration of ATP=7 uM). Reactions were incubated at room temperature for 30 minutes. A small aliquot (10 uL) was taken and quenched by adding into 190 uL of DELFIA Assay buffer containing 100 mM EDTA. The amount of phosphate transferred to biotinylated GST-ATF2 was measured using the Dissociation Enhanced Lanthanide Fluorescence Immuno-assay (DELFIA) from Perkin Elmer according to manufacturers protocol. Briefly, biotinylated GST-ATF2 was captured on streptavidin coated plates for 1 hour, washed twice, then incubated for 1 hour with a 1:1000 dilution of rabbit-anti-phospho-ATF2 antibody and a 1:3500 dilution of Europium-labeled anti-rabbit secondary antibody. Free antibody was removed with six washes, Europium was dissociated from the antibody, and Europium fluorescence was measured using an excitation wavelength of 340 nm and an emission wavelength of 615 nm. JNK2 and JNK3 kinase reactions were carried out similarly, with the exception that the final concentration of ATP was 4 uM and 2 uM, respectively.

[2] = target: JNK3 (Homo sapiens, UniProt P53779); experiment: JNK3 kinase DELFIA (phosphorylation of biotinylated GST-ATF2); conditions: final ATP 2 uM
Sequence of JNK3 (P53779 whole entry, species assumed): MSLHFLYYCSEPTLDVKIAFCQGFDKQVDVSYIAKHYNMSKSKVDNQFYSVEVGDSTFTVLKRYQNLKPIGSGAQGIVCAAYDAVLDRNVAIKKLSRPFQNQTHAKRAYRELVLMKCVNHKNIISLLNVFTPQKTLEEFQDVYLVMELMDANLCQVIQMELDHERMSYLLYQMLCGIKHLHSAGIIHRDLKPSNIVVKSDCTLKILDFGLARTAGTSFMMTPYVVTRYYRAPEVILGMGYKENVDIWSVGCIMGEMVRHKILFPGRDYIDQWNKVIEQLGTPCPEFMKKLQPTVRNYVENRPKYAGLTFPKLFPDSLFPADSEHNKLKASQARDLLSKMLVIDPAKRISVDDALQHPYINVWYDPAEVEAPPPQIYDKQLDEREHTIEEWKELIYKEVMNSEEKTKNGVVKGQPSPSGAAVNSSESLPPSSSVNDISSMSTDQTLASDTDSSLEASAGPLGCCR
Protocol: as §1

[3] = target: JNK2 (Homo sapiens, UniProt P45984); experiment: JNK2 kinase DELFIA (phosphorylation of biotinylated GST-ATF2); conditions: final ATP 4 uM, reported as range for a group
Sequence of JNK2 (P45984 whole entry, species assumed): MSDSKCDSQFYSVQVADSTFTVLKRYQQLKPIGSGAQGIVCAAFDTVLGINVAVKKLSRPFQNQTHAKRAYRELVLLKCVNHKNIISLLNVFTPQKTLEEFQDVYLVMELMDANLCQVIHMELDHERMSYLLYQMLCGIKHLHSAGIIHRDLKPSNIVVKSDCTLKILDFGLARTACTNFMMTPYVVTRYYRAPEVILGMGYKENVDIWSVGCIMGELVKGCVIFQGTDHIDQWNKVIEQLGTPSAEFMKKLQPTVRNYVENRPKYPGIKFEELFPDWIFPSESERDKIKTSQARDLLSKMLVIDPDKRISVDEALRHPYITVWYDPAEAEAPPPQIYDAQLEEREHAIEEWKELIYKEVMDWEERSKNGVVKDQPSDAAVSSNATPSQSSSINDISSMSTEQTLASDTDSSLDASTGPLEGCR
Protocol: as §1

[4] = DELFIA, 2 nM JNK1, final ATP 7 uM, 10 min pre-incubation, reported as range for a group

CC(C)C[C@@H](CO)NC(=O)c1c(-c2ccccn2)nc2c(C(=O)NCc3ccc4nc(N)sc4c3)cccn12 [Compound 478]
IC50 [1, 4]: 6 to 100 nM and 6 to 20 nM and 6 to 10 nM | IC50 ([1]; read-out: JNK 1 IC50): 10 nM | IC50 [2]: 9 to 50 nM | IC50 [3]: 4 to 46 nM

Cc1nc2ccc(CNC(=O)c3cccn4c(C(=O)N[C@H](CO)CC(C)C)c(C)nc34)cc2[nH]1 [Compound 599]
IC50 [1, 4]: 6 to 100 nM | IC50 [2]: 9 to 50 nM | IC50 [3]: 4 to 46 nM

CC(C)C[C@@H](CO)NC(=O)c1c(-c2ccsc2)nc2c(C(=O)NCc3ccc(N4CCCCC4)nc3)cccn12 [Compound 301]
IC50 [1, 4]: 6 to 100 nM | IC50 [2]: 9 to 50 nM | IC50 [3]: 4 to 46 nM

Cc1nc2cc(CNC(=O)c3cccn4c(C(=O)N[C@H](CO)CC(C)C)c(-c5ccsc5)nc34)ccc2[nH]1 [Compound 112]
IC50 [1, 4]: 6 to 20 nM and 6 to 10 nM | IC50 ([1]; read-out: JNK 1 IC50): 8 nM | IC50 [2]: 9 to 50 nM | IC50 [3]: 4 to 46 nM

Cc1cccc(-n2cc(CNC(=O)c3cccn4c(C(=O)N[C@H](CO)CC(C)C)cnc34)cn2)c1 [Compound 605]
IC50 [1, 4]: 6 to 100 nM | IC50 ([1]; read-out: JNK 1 IC50): 21 nM | IC50 [2]: 9 to 50 nM | IC50 [3]: 4 to 46 nM

Cc1cccc(-n2cc(CNC(=O)c3cccn4c(C(=O)N[C@H](CO)CC(C)C)c(-c5ccsc5)nc34)cn2)c1 [Compound 218]
IC50 [1, 4]: 6 to 20 nM | IC50 [2]: 9 to 50 nM | IC50 [3]: 4 to 46 nM

CC(C)C[C@@H](CO)NC(=O)c1c(-c2ccsc2)nc2c(C(=O)NCc3ccc4nc(C(C)C)[nH]c4c3)cccn12 [Compound 114]
IC50 [1, 4]: 6 to 20 nM | IC50 [2]: 9 to 50 nM | IC50 [3]: 4 to 46 nM

CC(C)C[C@H](CO)NC(=O)c1c(-c2ccsc2)nc2c(C(=O)NCc3ccc(N4CCCC4)nc3)cccn12 [Compound 291]
IC50 [1, 4]: 6 to 100 nM | IC50 [2]: 54 to 98 nM | IC50 [3]: 107 to 173 nM

CC(C)C[C@@H](CO)NC(=O)c1c(-c2ccsc2)nc2c(C(=O)NCc3ccc4nc(N)sc4c3)cccn12 [Compound 14]
IC50 [1, 4]: 6 to 100 nM and 6 to 20 nM | IC50 [2]: 9 to 50 nM | IC50 [3]: 4 to 46 nM

CC(C)C[C@@H](CO)NC(=O)c1c(-c2ccsc2)nc2c(C(=O)NCc3ccc(N4CCOCC4)nc3)cccn12 [Compound 300]
IC50 [1, 4]: 6 to 100 nM and 6 to 20 nM | IC50 [2]: 9 to 50 nM | IC50 [3]: 4 to 46 nM

C[C@@H](CO)NC(=O)c1c(-c2ccsc2)nc2c(C(=O)NCc3ccc4nc(N)sc4c3)cccn12 [Compound 22]
IC50 [1, 4]: 6 to 100 nM | IC50 [2]: 9 to 50 nM | IC50 [3]: 52 to 94 nM

CCc1nc2c(C(=O)NCc3ccc4nc(N)sc4c3)cccn2c1C(=O)N[C@H](CO)CC(C)C [Compound 456]
IC50 [1, 4]: 6 to 100 nM | IC50 [2]: 9 to 50 nM | IC50 [3]: 4 to 46 nM

CC(C)C[C@@H](CO)NC(=O)c1c(-c2ccsc2)nc2c(C(=O)NCc3ccc(-c4cccnc4)nc3)cccn12 [Compound 306]
IC50 [1, 4]: 6 to 100 nM and 6 to 20 nM | IC50 [2]: 9 to 50 nM | IC50 [3]: 4 to 46 nM

Cc1ccn(-c2ccc(CNC(=O)c3cccn4c(C(=O)N[C@H](CO)CC(C)C)c(-c5ccsc5)nc34)cn2)n1 [Compound 323]
IC50 [1, 4]: 6 to 100 nM | IC50 [2]: 9 to 50 nM | IC50 [3]: 4 to 46 nM

CC(C)C[C@@H](CO)NC(=O)c1c(-c2ccsc2)nc2c(C(=O)NCc3ccnc(N4CCCC4)c3)cccn12 [Compound 296]
IC50 [1, 4]: 6 to 100 nM and 6 to 20 nM | IC50 [2]: 9 to 50 nM | IC50 [3]: 4 to 46 nM

CC(C)C[C@@H](CO)NC(=O)c1c(-c2ccc(F)cc2)nc2c(C(=O)NCc3ccc4nc(N)sc4c3)cccn12 [Compound 452]
IC50 [1, 4]: 6 to 100 nM | IC50 [2]: 54 to 98 nM | IC50 [3]: 52 to 94 nM

Nc1nc2ccc(CNC(=O)c3cccn4c(C(=O)N[C@H]5CC[C@H](O)CC5)c(-c5ccsc5)nc34)cc2s1 [Compound 56]
IC50 [1, 4]: 6 to 100 nM | IC50 [2]: 118 to 174 nM | IC50 [3]: 107 to 173 nM

CC(C)C[C@@H](CO)NC(=O)c1c(-c2cccs2)nc2c(C(=O)NCc3ccc4nc(N)sc4c3)cccn12 [Compound 542]
IC50 [1, 4]: 6 to 100 nM | IC50 [2]: 9 to 50 nM | IC50 [3]: 4 to 46 nM

CC(C)C[C@@H](CO)NC(=O)c1c(-c2ccccc2)nc2c(C(=O)NCc3ccc4nc(N)sc4c3)cccn12 [Compound 451]
IC50 [1, 4]: 6 to 100 nM | IC50 [2]: 9 to 50 nM | IC50 [3]: 4 to 46 nM

CC(C)C[C@@H](CO)NC(=O)c1c(-c2ccsc2)nc2c(C(=O)NCc3ccc(-c4ccncc4)nc3)cccn12 [Compound 307]
IC50 [1, 4]: 6 to 100 nM and 6 to 20 nM | IC50 [2]: 9 to 50 nM | IC50 [3]: 4 to 46 nM

CC(C)C[C@@H](CO)NC(=O)c1c(-c2ccsc2)nc2c(C(=O)NCc3cnn(-c4ccccc4)c3)cccn12 [Compound 216]
IC50 [1, 4]: 6 to 20 nM | IC50 [2]: 9 to 50 nM | IC50 [3]: 4 to 46 nM

CS(=O)(=O)c1ccc(CNC(=O)c2cccn3c(C(=O)N[C@H](CO)c4ccccc4)c(-c4ccsc4)nc23)cc1 [Compound 93]
IC50 [1, 4]: 6 to 100 nM | IC50 [2]: 54 to 98 nM | IC50 [3]: 52 to 94 nM

Cc1ccc(-n2cc(CNC(=O)c3cccn4c(C(=O)N[C@H](CO)CC(C)C)c(-c5ccsc5)nc34)cn2)cc1 [Compound 219]
IC50 [1, 4]: 6 to 20 nM | IC50 [2]: 9 to 50 nM | IC50 [3]: 4 to 46 nM

Nc1nc2ccc(CNC(=O)c3cccn4c(C(=O)NC[C@H]5CCCCC[C@H]5O)c(-c5ccsc5)nc34)cc2s1 [Compound 48]
IC50 [1, 4]: 6 to 100 nM | IC50 [2]: 209 to 479 nM | IC50 [3]: 107 to 173 nM

Cc1nc2ccc(CNC(=O)c3cccn4c(C(=O)N[C@H](CO)CC(C)C)c(-c5ccccn5)nc34)cc2n1C [Compound 483]
IC50 [1, 4]: 6 to 100 nM and 6 to 20 nM | IC50 ([1]; read-out: JNK 1 IC50): 11 nM | IC50 [2]: 9 to 50 nM | IC50 [3]: 4 to 46 nM

Cc1nc2ccc(CNC(=O)c3cccn4c(C(=O)N[C@H](CO)CC(C)C)c(-c5ccsc5)nc34)cc2s1 [Compound 130]
IC50 [1, 4]: 6 to 100 nM | IC50 [2]: 9 to 50 nM | IC50 [3]: 4 to 46 nM
